From PMC3326528 (Journal of the American Chemical Society, 2007)

Experiments:
FDAS [1] = target: T1, FDAS (Streptantibioticus cattleyicolor, UniProt Q70GK9); assay: Reactivity of SAH / homocysteine with FDAS; assay type: biochemical, Streptomyces cattleya
FDAS [2] = target: T1, FDAS; assay: Active site titration of FDAS; assay type: biochemical, Streptomyces cattleya
FDAS [3] = assay: Discontinuous assay of FDAS; assay type: biochemical, Streptomyces cattleya; settings: turnover at a fixed substrate concentration compared to the wild type
apo FDAS = apo FDAS (Streptantibioticus cattleyicolor, UniProt Q70GK9); assay: ITC binding of ligands to apo FDAS; parameters: species or system Streptomyces cattleya; settings: for Stoichiometry (N) / Ka (app) / S / ΔH: 25 °C; for Stoichiometry (N): 20mM sodium phosphate buffer (pH 7.8), apo FDAS; for Ka (app) / S / ΔH: pH 7.8, apo FDAS
FDAS (native, wild type) = FDAS (native, wild type) (Streptantibioticus cattleyicolor, UniProt Q70GK9); assay: Isothermal titration calorimetry; assay type: binding
FDAS [4] = target: T1, FDAS; assay: Discontinuous assay of FDAS; assay type: biochemical, Streptomyces cattleya; settings: F^− 200mM
D16N mutation of FDAS = D16N mutation of FDAS (Streptantibioticus cattleyicolor, UniProt Q70GK9, D16N); assay: ITC binding of SAM to D16N mutant; parameters: species or system Streptomyces cattleya
[5] = target: FDAS pre-incubated with 5′-FDA (Streptantibioticus cattleyicolor, UniProt Q70GK9); settings: 1mM L-methionine titrated into 0.08 mM FDA and 0.02 mM apo FDAS mixture
[6] = target: FDAS pre-incubated with adenosine (Streptantibioticus cattleyicolor, UniProt Q70GK9); settings: 1mM L-methionine titrated into 0.024 mM Adenosine and 0.02 mM apo FDAS mixture

Row | Molecule | Kd (FDAS (native, wild type)) [nM] | Stoichiometry (N) (apo FDAS; ITC) | Ka (app) (apo FDAS; ITC) | S (apo FDAS; ITC) [kcal/mol] | ΔH (apo FDAS; ITC) [kcal/mol] | further results
1 | NC(CCS)C(=O)O (stereo not shown) [homocysteine] |  |  |  |  |  | SAH production by the enzyme (HPLC) (FDAS [1]; 5-ClDA and homocysteine): nor is any detected; SAH production by the enzyme (HPLC) (FDAS [1]; homocysteine and 5′-FDA, reverse reaction): no detectable production of SAH
2 | 5′-fluoro-5′-deoxy adenosine synthetase [FDAS] |  |  |  |  |  | burst size (active sites) (FDAS [2]; 50 μM SAM mixed with FDAS (2 μM), reaction initiated with 100 mM F^−): 0.1 µM; burst size (active sites) (FDAS [2]; 100 mM F^− pre-mixed with FDAS (2 μM), reaction initiated by 50 μM SAM): 0.6 µM; % activity (FDAS [3]): 100%
3 | F [fluoride] |  |  |  |  |  | binding to the protein by ITC (apo FDAS; either as apo or SAH complex): too weak to measure
4 | Nc1ncnc2c1ncn2[C@@H]1O[C@H](CO)C[C@H]1O [3′-deoxy-Ade, 3′-deoxyadenosine] | 2220 |  |  |  |  | 
5 | Nc1ncnc2c1ncn2[C@@H]1O[C@H](CSCC[C@H](N)C(=O)O)[C@@H](O)[C@H]1O [SAH, S-adenosyl homocysteine] | 33.1 | 0.72 ± 0.01 | 302 ± 74 ×10^5 M^−1 | -0.098 | -40 ± 0.5 | binding affinity relative to SAM (times more tightly bound) (apo FDAS; ITC): 40 times; effect on the reaction of SAM with F^− (FDAS [1]): inhibits; substrate of FDAS in the forward direction (FDAS [1]): not a substrate; 5′-ClDA production by the enzyme (FDAS [1]; incubation of Cl^− and SAH): does not produce 5′-ClDA
6 | Nc1ncnc2c1ncn2[C@@H]1O[C@H](CF)[C@@H](O)[C@H]1O [FDA, 5′-fluoro-5′-deoxyadenosine (5′-FDA)] | 220 |  |  |  |  | 
7 | C[S+](CC[C@H](N)C(=O)[O-])C[C@H]1O[C@@H](n2cnc3c(N)ncnc32)[C@H](O)[C@@H]1O (stereo partly drawn) [SAM, S-adenosyl-L-methionine] | 1250 | 0.56 ± 0.01 | 8.0 ± 0.5 ×10^5 M^−1 | -0.058 | -25 ± 0.4 | SAM concentration above which FDAS displays substrate inhibition (FDAS [4]): greater than 20 μM; SAM binding by ITC (D16N mutation of FDAS): does not bind with measurable affinity
8 | CSCC[C@H](N)C(=O)O [L-methionine] |  |  |  |  |  | S [5]: -0.036 kcal/mol; ΔH [5]: -17 ± 2 kcal/mol; S [6]: -0.022 kcal/mol; Stoichiometry (N) [6]: 0.48 ± 0.11; ΔH [6]: -13 ± 3 kcal/mol
9 | Nc1ncnc2c1ncn2[C@@H]1O[C@H](CF)[C@@H](O)[C@H]1O [FDA, 5′-fluoro-5′-deoxy adenosine] |  | 1.16 ± 0.01 | 45.5 ± 6.5 ×10^5 M^−1 | -0.017 | -14 ± 0.1 | 
10 | Nc1ncnc2c1ncn2[C@@H]1O[C@H](CO)[C@@H](O)[C@H]1O [Ade, adenosine] | 820 | 0.67 ± 0.01 | 12.2 ± 1.2 ×10^5 M^−1 | -0.04 | -20 ± 0.4 | 
11 | Nc1ncnc2c1ncn2[C@@H]1O[C@H](CO)C[C@H]1O [3′-deoxy-Ade] |  | 0.37 ± 0.02 | 4.5 ± 0.6 ×10^5 M^−1 | -0.027 | -16 ± 0.9 | reduction of affinity relative to adenosine (apo FDAS; ITC): 3 fold
